{
  "source": "patent US20260116867A1",
  "about": "“PROTEOLYSIS TARGETING CHIMERAS FOR HUMAN PREGNANE X RECEPTOR AND FOR DEGRADATION OF GSPT1” (ST. JUDE CHILDREN'S RESEARCH HOSPITAL, priority 2022, published 2026)",
  "key": {"GSPT1": {"target": "T1, GSPT1 (Homo sapiens, UniProt P15170+Q96SW2)", "T1 construct": "endogenous in cells", "T1 sequence (P15170 1-637 isoform P15170-3)": "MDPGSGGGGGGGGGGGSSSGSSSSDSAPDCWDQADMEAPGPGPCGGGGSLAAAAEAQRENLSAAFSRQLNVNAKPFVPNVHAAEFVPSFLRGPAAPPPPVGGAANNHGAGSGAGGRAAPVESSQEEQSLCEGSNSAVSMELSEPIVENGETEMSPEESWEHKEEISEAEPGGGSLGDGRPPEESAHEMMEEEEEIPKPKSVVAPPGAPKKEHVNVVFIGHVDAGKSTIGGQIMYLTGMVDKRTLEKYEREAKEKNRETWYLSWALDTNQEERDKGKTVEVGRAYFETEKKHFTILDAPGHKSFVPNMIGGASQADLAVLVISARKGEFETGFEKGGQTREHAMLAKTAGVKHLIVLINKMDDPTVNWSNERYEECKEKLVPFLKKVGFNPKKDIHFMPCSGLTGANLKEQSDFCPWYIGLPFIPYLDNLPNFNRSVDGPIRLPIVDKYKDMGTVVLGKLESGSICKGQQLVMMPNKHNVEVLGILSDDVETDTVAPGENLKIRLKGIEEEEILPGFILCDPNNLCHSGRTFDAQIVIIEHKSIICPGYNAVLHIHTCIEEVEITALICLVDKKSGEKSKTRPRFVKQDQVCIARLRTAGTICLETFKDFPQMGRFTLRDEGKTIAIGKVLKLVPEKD", "T1 sequence (Q96SW2 whole entry)": "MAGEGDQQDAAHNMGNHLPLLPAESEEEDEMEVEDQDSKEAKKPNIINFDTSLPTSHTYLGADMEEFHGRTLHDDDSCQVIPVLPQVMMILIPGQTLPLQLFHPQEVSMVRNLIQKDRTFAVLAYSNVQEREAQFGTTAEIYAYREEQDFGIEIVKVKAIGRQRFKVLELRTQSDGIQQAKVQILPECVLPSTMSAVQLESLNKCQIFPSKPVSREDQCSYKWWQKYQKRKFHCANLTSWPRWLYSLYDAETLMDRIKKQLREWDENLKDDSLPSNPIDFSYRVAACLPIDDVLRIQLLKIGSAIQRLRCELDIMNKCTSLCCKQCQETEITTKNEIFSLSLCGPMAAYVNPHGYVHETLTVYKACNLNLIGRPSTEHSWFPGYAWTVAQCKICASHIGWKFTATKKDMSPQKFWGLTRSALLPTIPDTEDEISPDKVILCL", "T1 sequence (Q16531 whole entry partner)": "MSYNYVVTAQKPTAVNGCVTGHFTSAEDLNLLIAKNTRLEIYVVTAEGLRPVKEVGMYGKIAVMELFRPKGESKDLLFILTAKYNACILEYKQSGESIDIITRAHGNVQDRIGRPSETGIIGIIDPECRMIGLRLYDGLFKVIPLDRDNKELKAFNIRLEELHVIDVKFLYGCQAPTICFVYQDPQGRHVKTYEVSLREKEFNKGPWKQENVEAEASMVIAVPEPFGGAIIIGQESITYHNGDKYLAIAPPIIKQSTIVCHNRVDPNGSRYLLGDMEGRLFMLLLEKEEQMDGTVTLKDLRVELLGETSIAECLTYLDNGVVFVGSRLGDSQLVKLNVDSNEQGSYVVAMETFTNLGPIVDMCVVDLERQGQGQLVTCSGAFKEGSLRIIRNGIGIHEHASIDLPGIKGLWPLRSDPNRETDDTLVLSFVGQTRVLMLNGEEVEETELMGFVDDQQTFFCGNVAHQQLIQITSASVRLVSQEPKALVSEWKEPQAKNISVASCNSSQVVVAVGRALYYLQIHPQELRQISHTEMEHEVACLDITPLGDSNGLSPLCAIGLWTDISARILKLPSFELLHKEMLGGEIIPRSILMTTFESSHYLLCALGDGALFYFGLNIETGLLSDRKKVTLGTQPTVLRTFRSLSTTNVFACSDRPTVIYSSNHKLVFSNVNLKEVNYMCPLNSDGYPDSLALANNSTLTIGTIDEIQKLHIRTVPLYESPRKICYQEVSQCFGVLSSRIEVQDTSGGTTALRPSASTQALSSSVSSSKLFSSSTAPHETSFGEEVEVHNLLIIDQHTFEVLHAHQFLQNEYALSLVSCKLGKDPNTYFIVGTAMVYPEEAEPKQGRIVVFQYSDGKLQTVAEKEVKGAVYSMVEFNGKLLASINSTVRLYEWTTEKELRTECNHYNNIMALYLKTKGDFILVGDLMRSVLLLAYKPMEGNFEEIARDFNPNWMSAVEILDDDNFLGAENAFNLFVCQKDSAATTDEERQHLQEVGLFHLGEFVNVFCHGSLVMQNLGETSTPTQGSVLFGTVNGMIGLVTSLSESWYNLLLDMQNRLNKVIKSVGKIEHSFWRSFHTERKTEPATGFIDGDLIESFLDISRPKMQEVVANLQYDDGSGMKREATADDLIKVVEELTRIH", "assay": "Western blot of GSPT1 protein in SNU—C4 3xFLAG-PXR KI cells", "format": "cell-based", "description": "(§1) The following day, DMSO or compounds were added to result in 0.5% DMSO and the indicated compound concentrations, and cells were incubated for the indicated time points. Cells were lysed and subjected to western blotting as above using antibodies against FLAG (Sigma-Aldrich, cat. #F3165, 1:2,000 dilution), GSPT1 (Abcam, cat. #ab126090, 1:4,000 dilution), and R-Actin (Cell Signaling Technology, cat. #4967, 1:2,000 dilution)."}, "PXR [1]": {"target": "T2, PXR (Homo sapiens, UniProt O75469)", "T2 sequence (O75469 1-434)": "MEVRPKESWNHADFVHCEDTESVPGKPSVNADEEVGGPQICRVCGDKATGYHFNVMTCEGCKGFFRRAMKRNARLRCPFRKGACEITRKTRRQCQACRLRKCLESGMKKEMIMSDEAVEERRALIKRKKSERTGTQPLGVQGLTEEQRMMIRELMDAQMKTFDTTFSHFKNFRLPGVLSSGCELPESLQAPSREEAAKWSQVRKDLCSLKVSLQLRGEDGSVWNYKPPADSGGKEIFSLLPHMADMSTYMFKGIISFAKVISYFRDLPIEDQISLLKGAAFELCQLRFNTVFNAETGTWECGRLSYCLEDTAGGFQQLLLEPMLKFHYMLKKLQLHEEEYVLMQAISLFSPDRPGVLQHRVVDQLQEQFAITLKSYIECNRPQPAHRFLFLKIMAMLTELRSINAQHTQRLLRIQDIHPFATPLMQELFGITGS", "assay": "cell-based hPXR inverse agonistic assay"}, "[2]": {"test_system": "SNU—C4 3xFLAG-PXR KI cells", "assay": "Cytotoxicity assay (CellTiter-Glo, 72 h)", "format": "cell-based, human", "conditions": "SNU—C4 3xFLAG-PXR KI cells", "description": "(§2) The indicated cells (2.5×10^3/well in 40 μL RPMI with 10% FBS) were plated in the 384-well plates, resulting in 0.5% DMSO and the indicated concentrations of chemicals. After 72 h compound treatment, the CellTiter-Glo Luminescent Cell Viability Assay (Promega) and an EnVision microplate reader were used to assess cytotoxicity. Wells containing DMSO alone or 10 μM staurosporine served as negative and positive controls, respectively. The percent cell viability for each well was calculated using equation 1: […]"}, "[3]": {"assay": "Cytotoxicity assay (CellTiter-Glo, 72 h)", "format": "cell-based, human", "conditions": "human, SNU-C4 3xFLAG-PXR KI cells; read-out: half maximal cytotoxic concentration (CC50)", "description": "as §2"}, "PXR [4]": {"target": "T2, PXR", "assay": "Western blot of endogenous 3xFLAG-PXR protein in SNU—C4 3xFLAG-PXR KI cells", "format": "cell-based", "design": "To assess SJPYT-195 activity against endogenous PXR, CRISPR-Cas9 was used; endogenous in cells", "description": "as §1"}, "HiBiT-FKBP12^F36V-PXR": {"target": "T3, HiBiT-FKBP12^F36V-PXR (Homo sapiens, UniProt O75469+P62942, F37V)", "T3 construct": "expressed in transfected cells; host or cells: HepG2 cells (transient, Lipofectamine 3000)", "T3 sequence (P62942+O75469 fused P62942:F37V)": "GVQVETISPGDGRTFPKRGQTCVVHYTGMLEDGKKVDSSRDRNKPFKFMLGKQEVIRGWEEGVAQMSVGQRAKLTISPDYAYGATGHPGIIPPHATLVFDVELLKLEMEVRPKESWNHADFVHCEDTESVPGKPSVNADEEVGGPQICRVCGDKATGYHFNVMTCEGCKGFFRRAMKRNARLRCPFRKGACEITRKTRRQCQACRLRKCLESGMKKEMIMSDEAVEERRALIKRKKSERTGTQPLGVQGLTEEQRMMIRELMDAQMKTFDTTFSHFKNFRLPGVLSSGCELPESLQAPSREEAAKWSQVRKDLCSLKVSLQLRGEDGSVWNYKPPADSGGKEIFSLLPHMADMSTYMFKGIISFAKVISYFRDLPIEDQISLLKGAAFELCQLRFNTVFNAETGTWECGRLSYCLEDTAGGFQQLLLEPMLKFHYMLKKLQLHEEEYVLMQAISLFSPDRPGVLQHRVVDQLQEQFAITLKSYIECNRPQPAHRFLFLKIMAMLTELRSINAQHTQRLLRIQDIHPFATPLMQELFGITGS", "T3 sequence (Q96SW2 whole entry partner)": "as the sequence (Q96SW2 whole entry) above", "assay": "HiBiT assay for degradation of overexpressed protein in HepG2 cells", "format": "cell-based", "conditions": "HepG2, HiBiT-FKBP12^F36V-PXR, 24 h, FIG. 4A", "description": "HepG2 cells (5×10^6 cells/dish) were plated in tissue culture-treated 10 cm dishes in 10 mL EMEM with 10% FBS. The next day, cells were transfected with 5 μg pcDNA3-HiBiT-FKBP^F36V-2xHA-PXR and either 5 μg pcDNA3 vector or 5 μg pcDNA3-HA-CRBN using Lipofectamine 3000 (Thermo Fisher Scientific). After 24 h, cells were trypsinized, resuspended in assay media, and plated in white tissue culture-treated 384-well plates (1.5×10^4 cells/well in 25 μL medium). […] The plates were incubated for 24 h, and the Nano-Glo HiBiT Lytic Detection System (Promega) and an EnVision microplate reader were used to measure HiBiT signal. Results are reported as fold change relative to DMSO control cells.\nTo establish a method for discovery of PXR degraders in the absence of a known PXR-degrading control, the degradation tag (dTAG) system was used. With this method, a protein of interest (PXR) is fused to a cytosolic prolyl isomerase, FKBP12, with Phe36 mutated to Val (FKBP12^F36V) (FIG. 2A). A PROTAC molecule, dTAG-13 (FIG. 2B), is then used to induce degradation of the fusion protein through recruitment of the CUL4-RBX1-DDB1-CRBN (CRL4^CRBN) E3 ubiquitin ligase, without affecting the cellular FKBP12 protein. An HA tag was added for western blot detection, and a HiBiT tag was fused to the N-terminus to allow high-throughput plate-based quantification of HiBiT-FKBP12^F36V-PXR protein levels (FIG. 2A). […] This was also observed when the HA tag was detected by western blot (FIG. 2D). The HiBiT detection was more sensitive to protein level changes than western blot, and, importantly, overexpression of CRBN was required to achieve dTAG-13-mediated degradation of the overexpressed HiBiT-FKBP12^F36V-PXR protein."}, "PXR [5]": {"target": "T2, PXR", "assay": "cell-based hPXR antagonistic assay"}, "[6]": {"test_system": "SNU—C4 3xFLAG-PXR KI cell lines stably expressing HA-tagged GSPT1^G575N", "assay": "Cytotoxicity assay in cells overexpressing degradation-resistant GSPT1 mutant", "format": "cell-based, human", "conditions": "FIG. 7B-C", "description": "Complete information for all plasmids is included in Table 1 below. […] Lentiviruses for pCDH-GSPT1 or pCDH-GSPT1^G575N were generated in 293T cells using psPAX2 and pMD2.G packaging vectors. The packaging vectors were gifts from Dr. Didier Trono (Addgene plasmid #12259 and 12260).\nas §2"}},
  "note": "Entries after “also recorded” stand apart in the source; their conditions may differ.",
  "data": [
    {"compound": "COc1ccc(OC)c(-n2nnc(C(=O)Nc3cc(Oc4cccc5c4C(=O)N(C4CCC(=O)NC4=O)C5=O)cc(C(C)(C)C)c3)c2C)c1", "note": "(stereo not shown) [Compound M4, N-(3-(tert-butyl)-5-((2-(2,6-dioxopiperidin-3-yl)-1,3-dioxoisoindolin-4-yl)oxy)phenyl)-1-(2,5-dimethoxyphenyl)-5-methyl-1H-1,2,3-triazole-4-carboxamide]", "values": [
      {"measurement": "GSPT1 Loss at 10 μM (% ± SD)", "setting": "GSPT1; 10 μM compound, calculated from western blots FIG. 9A", "value": "100 ± 0.1", "unit": "%"},
      {"measurement": "activity on GSPT1, fold lower than that of CC-885", "setting": "GSPT1; western blot, FIG. 6D-E", "value": "~100", "unit": "fold"},
      {"measurement": "GSPT1 degradation (in words)", "setting": "GSPT1; western blot, SNU—C4 3xFLAG-PXR KI cells, listed as SJPYT-195", "value": "deplete GSPT1 at concentrations much lower than those required to reduce PXR; also recorded: most potent inducer of GSPT1 degradation"},
      {"measurement": "inhibition at 10 µM", "setting": "PXR [1]; read-out: Inverse agonist (% inhibition at 10 μM)", "value": 133, "unit": "%"},
      {"measurement": "IC50", "setting": "PXR [1]; read-out: Inverse agonist (IC50/μM)", "value": "0.18 ± 0.055", "unit": "µM"},
      {"measurement": "fold difference in CC50 values (CC-885 vs SJPYT-195)", "setting": "[2]", "value": 133, "unit": "fold"},
      {"measurement": "CC50 at 72 h", "setting": "[3]", "value": "440 ± 80", "unit": "nM"},
      {"measurement": "reduction of PXR protein", "setting": "PXR [4]; 5 μM, 12 h", "value": "~50", "unit": "%"},
      {"measurement": "maximum degradation efficacy (DNax) of endogenous PXR protein", "setting": "PXR [4]; SNU—C4 3xFLAG-PXR KI cells, FIG. 4B", "value": "85% ±1"},
      {"measurement": "DC50", "setting": "PXR [4]; SNU—C4 3xFLAG-PXR KI cells, FIG. 4B, read-out: half maximal degradation concentration (DC50) of endogenous PXR protein", "value": "310 ± 130", "unit": "nM"},
      {"measurement": "kinetics of PXR protein decrease", "setting": "PXR [4]; time-course, FIG. 5A-B", "value": "quite slow"},
      {"measurement": "PXR protein level (in words)", "setting": "PXR [4]; western blot, SNU—C4 3xFLAG-PXR KI cells", "value": "reduced PXR to a greater extent than CC-885"},
      {"measurement": "HiBiT signal (screen of PXR ligand-CRBN ligand compounds)", "setting": "HiBiT-FKBP12^F36V-PXR", "value": "reduced HiBiT signal"},
      {"measurement": "inhibition at 10 µM", "setting": "PXR [5]; read-out: Antagonist (% inhibition at 10 μM)", "value": 96, "unit": "%"},
      {"measurement": "IC50", "setting": "PXR [5]; read-out: Antagonist (IC50/μM)", "value": "0.94 ± 0.2", "unit": "µM"},
      {"measurement": "cytotoxicity in cells overexpressing GSPT1^G575N", "setting": "[6]", "value": "partially resistant"}
    ]}
  ]
}
